In article PMC8651387, “Synthesis and Evaluation of the Acetylcholinesterase Inhibitory Activities of Some Flavonoids Derived from Naringenin” (The Scientific World Journal, 2021):
Where “and” joins values, the source holds several entries; their conditions need not be identical. Equal values may be shown once. Read-outs that look alike come from different tables or passages of the source.

How the values were obtained:
[1] = Solubility in water and solvents (compound description)
AChE = AChE (Homo sapiens, UniProt P22303); experiment: biochemical; conditions: for IC50: pH 8, 25°C, triplicate
Sequence of AChE (P22303 32-614): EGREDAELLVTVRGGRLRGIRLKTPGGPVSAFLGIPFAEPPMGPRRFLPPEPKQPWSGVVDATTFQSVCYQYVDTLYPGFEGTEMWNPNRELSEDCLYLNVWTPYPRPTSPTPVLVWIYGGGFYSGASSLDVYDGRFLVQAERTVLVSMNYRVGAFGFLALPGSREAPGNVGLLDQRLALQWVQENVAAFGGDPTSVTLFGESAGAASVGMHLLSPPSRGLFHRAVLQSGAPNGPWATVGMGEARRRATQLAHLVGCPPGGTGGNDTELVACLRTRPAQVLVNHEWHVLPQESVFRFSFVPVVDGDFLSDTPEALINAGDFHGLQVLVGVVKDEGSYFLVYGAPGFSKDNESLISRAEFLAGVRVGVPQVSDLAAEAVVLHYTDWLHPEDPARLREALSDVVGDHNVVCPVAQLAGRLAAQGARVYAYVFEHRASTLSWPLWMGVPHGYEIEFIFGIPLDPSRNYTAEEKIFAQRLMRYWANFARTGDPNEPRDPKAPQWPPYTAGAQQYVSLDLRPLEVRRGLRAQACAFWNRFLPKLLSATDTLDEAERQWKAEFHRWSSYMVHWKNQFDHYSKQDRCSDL

[2] = AChE 0.25 UI/mL, read-out: IC50

SMILES | Solubility in acetone [1] | Solubility in dichloromethane [1] | Solubility in methanol [1] | Solubility in water [1] | AChE inhibitory activity (in words) (AChE) | IC50 (AChE; [2]) | IC50 (AChE; IC50, AChE 0.25 UI/mL) [µM]
C=CCOc1cc(O)c2c(c1)OC(c1ccc(O)cc1)CC2=O (stereo not drawn) [Compound 5, 7-Allyloxy-4′,5-dihydroxyflavanone] | highly soluble | sparingly soluble | sparingly soluble | insoluble | improved activities over naringenin | < 100 µM and 48.4 µM | –
C=CCOc1ccc(C2CC(=O)c3c(O)cc(OCC=C)cc3O2)cc1 (stereo not drawn) [Compound 6, 4′,7-Diallyloxy-5-hydroxyflavanone] | soluble | highly soluble | sparingly soluble | insoluble | negligible biological effects | > 100 µM | –
O=C(/C=C/c1ccc(OCc2ccccc2)cc1)c1c(OCc2ccccc2)cc(OCc2ccccc2)cc1OCc1ccccc1 [Compound 9, (E)-2′,4,4′,6′-Tetrabenzyloxychalcone] | soluble | highly soluble | slightly soluble | insoluble | negligible biological effects | > 100 µM | –
COc1cc(O)c2c(c1)OC(c1ccc(O)cc1)CC2=O (stereo not drawn) [Compound 1, 4′,5-Dihydroxy-7-methoxyflavanone] | – | – | – | – | – | – | > 100
C=CCOc1ccc(/C=C/C(=O)c2c(O)cc(OCC=C)cc2OCC=C)cc1 [Compound 7, (E)-2′,4,4′-Triallyloxy-6′-hydroxychalcone] | soluble | highly soluble | sparingly soluble | insoluble | improved activities over naringenin | < 100 µM and 13 µM | –
COc1ccc(/C=C/C(=O)c2c(OC)cc(OC)cc2OC)cc1 [Compound 3, (E)-2′,4,4′,6′-Tetramethoxychalcone] | soluble | highly soluble | sparingly soluble | insoluble | – | – | > 100
COc1ccc(C2CC(=O)c3c(O)cc(OC)cc3O2)cc1 (stereo not drawn) [Compound 2, 5-Hydroxy-4′,7-dimethoxyflavanone] | soluble | highly soluble | sparingly soluble | insoluble | improved activities over naringenin | < 100 µM and 75 µM | –
O=C1C[C@@H](c2ccc(O)cc2)Oc2cc(O)cc(O)c21 [Naringenin] | – | – | – | – | – | – | 150 ± 4.6
CCOc1ccc(/C=C/C(=O)c2c(O)cc(OCC)cc2OCC)cc1 [Compound 4, (E)-2′,4,4′-Triethoxy-6′-hydroxychalcone] | soluble | highly soluble | slightly soluble | insoluble | improved activities over naringenin | < 100 µM and 39.8 µM | –
O=C(/C=C/c1ccc(OCc2ccccc2)cc1)c1c(O)cc(OCc2ccccc2)cc1OCc1ccccc1 [Compound 8, (E)-2′,4,4′-Tribenzyloxy-6′-hydroxychalcone] | soluble | soluble | insoluble | insoluble | – | > 100 µM | –
